Test results published in US6444870B1, “Methods for assessing the role of calcineurin immunosuppression and neurotoxicity” (President and Fellows of Harvard College, priority 1995, dated 2002).

Experiments:
calcineurin = experiment: Calcineurin phosphatase assay in T cell extracts (okadaic acid resistant, EGTA-sensitive phosphatase activity); format: biochemical, mouse
Method: Spleen and lymph nodes were harvested from wild type and mutant mice and were dispersed into single cell suspension. Red blood cells were removed by lysis. The final concentrations were adjusted to 1.5-2.0×10^8 cells suspended in 2 ml of PBS containing 5% fetal calf serum and 4 mM EDTA. The cell suspensions were enriched for T cells using Mouse T Cell Enrichment Column (R&D Systems). T cells were then lysed with lysis buffer containing 50 mM Tris-HCl, pH 7.5, 15% glycerol, 0.1 mM EGTA, 1 mM EDTA, 0.5 mM DTT, […] PMSF, 50 μg/ml soybean trypsin inhibitor, 5 μg/ml aprotinin, 5 μg/ml leupeptin. Aliquots of 8×10^6 cells per 50 μl of lysis buffer were frozen until further analysis.
The phosphatase assay is a modified version of a previously described procedure (Manalan and Klee, 1983; Liu, 1991). The reaction mixture (total volume 60 μl) contained 50 mM MES (pH6.0), 100 mM NaCl, 6 mM Mg(OAc)2, […], […] (Fraction V), […] okadaic acid (Calbiochem), […] [^33P] RII peptide (600 cpm/pmole), and T cell or brain extract. […] of the terminated reaction mixture was applied per well, washed and counted in a Top-Count scintillation counter (Packard Instrument Co.). […]
Residual calcineurin activity, (i.e., okadaic acid resistant and EGTA-sensitive phosphatase activity) was measured in the same CNAα^−/− T cell extracts (Martin and Wiederrecht, in press). […]

T cells = experiment: Mitogenic stimulation of T cells: proliferation and IL-2 and IL-4 production, drug sensitivity; format: cell-based, mouse
Description: We tested the responses of the wild type and mutant T cells to mitogenic stimulation with phorbol 12-myristate 13 acetate (PMA) plus ionomycin, concanavalin A (ConA), and anti-CD3ε antibodies. All three mitogens induced the CNAα^−/− T cells to proliferate as rapidly as the wild type T-cells. Further, stimulated mutant and wild type T cells produced the same amounts of IL-2 and IL-4 and expressed normal level of IL-2 receptor on the surface. Thus, CNAα^−/− T cells appeared to be functional when stimulated by mitogens in vitro.
We tested the drug sensitivity of the CNAα^−/− T cells. […] CNA^−/− T cells were even more sensitive to these drugs than normal T cells, with a IC50 of 2-7 fold lower than that of the wild type T cells.

FK506
inhibition of (residual) calcineurin phosphatase activity (calcineurin; CNAα−/− mutant T cell extracts): 90-95% | inhibition of calcineurin phosphatase activity (calcineurin; wild type T cell extracts): 90-95% | proliferation and lymphokine production of CNAα−/− T cells, inhibitability (T cells; CNAα−/− T cells): fully inhibitable | inhibition of T cells as measured by proliferation and by IL-2 and IL-4 production (T cells; CNAα−/− and wild type T cells stimulated with PMA plus ionomycin, ConA, or αCD3ε antibody): inhibited
